Where two headings read alike, the source gives them in different places.
Legend:
Assay type in all cases: in vivo
[1] = system: Eggs of Tetranychus Cinnabarinus; assay: Activity assay of eggs of Tetranychus cinnabarinus (spray method, ovicidal); conditions: Tetranychus cinnabarinus; for pest or weed control at 5 µg/mL: concentration 5 mg/L, non-incubated eggs counted as dead; for pest or weed control at 2 µg/mL: concentration 2 mg/L
In short: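 Female mites laid eggs on broad bean leaves for 24 h, adults removed, eggs sprayed with compound in DMF (≤10%)/1‰ Tween 80. Held at 26±2° C, 70–80% humidity, 16 h light; unhatched eggs counted dead once blank control hatched. Three replicates.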

[2] = system: adult Tetranychus cinnabarinus; assay: Activity assay of adult Tetranychus cinnabarinus (whole-plant spray on bean seedlings); conditions: 48 h; for pest or weed control at 2.5 µg/mL: concentration 2.5 mg/L; for pest or weed control at 1.25 µg/mL: concentration 1.25 mg/L
In short: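 Bean seedlings at two-true-leaf stage, infested with adult mites and base count taken, sprayed whole-plant with compound in DMF (≤10%) diluted in 1‰ Tween 80. Three replicates per treatment kept in standard observation room. Surviving mites counted at 48 h to give death rate.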

[3] = system: Tetranychus cinnabarinus Nymphs; assay: Activity assay of Tetranychus cinnabarinus nymphs (spray on broad bean leaves); conditions: 48 h; for pest or weed control at 2.5 µg/mL: concentration 2.5 mg/L; for pest or weed control at 2.5 µg/mL / pest or weed control at 2 µg/mL: read-out: nymph-killing activity; for pest or weed control at 2 µg/mL: concentration 2 mg/L; for pest or weed control at 0.5 µg/mL: nymphs, concentration 0.5 mg/L, parallel determination, read-out: Death rate (%)
In short: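 Compound in DMF (≤10%) diluted in 1‰ Tween 80 water was sprayed onto broad bean leaves carrying nymphs hatched from eggs laid by female adults over 24 h. Kept at 26±2° C., 70%–80% humidity, 16 h light; mortality (no response to touch) assessed after 48 h, three replicates with blank control.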

[4] = spray, read-out: ovicidal activity
[5] = read-out: adult mite-killing activity
[6] = eggs, parallel determination, read-out: Death rate (%)
[7] = adult mites, parallel determination, read-out: Death rate (%)

Structure (SMILES)	pest or weed control at 5 µg/mL [1, 4] [%]	pest or weed control at 2.5 µg/mL [2, 5] [%]	pest or weed control at 2.5 µg/mL [3] [%]	pest or weed control at 2 µg/mL [1, 4] [%]	pest or weed control at 2 µg/mL [1, 6] [%]	pest or weed control at 1.25 µg/mL [2, 7] [%]	pest or weed control at 1.25 µg/mL [2, 5] [%]	pest or weed control at 2 µg/mL [3] [%]	pest or weed control at 0.5 µg/mL [3] [%]
C#CCOC(=O)OC(C)O/C(=C(/C#N)c1ccc(C(C)(C)C)cc1)c1cc(C)nn1CC (centres unmarked) [Compound 604]	≥ 90	≥ 90	≥ 95	–	–	–	–	–	–
CCSC(=O)OC(C)O/C(=C(/C#N)c1ccc(C(C)(C)C)cc1)c1cc(C)nn1CC (centres unmarked) [Compound 608]	≥ 90	≥ 90	≥ 95	–	–	–	–	–	–
CCn1nc(C)c(Cl)c1/C(OCOC(=O)OC)=C(\C#N)c1ccc(C(C)(C)C)cc1 [Compound 739]	≥ 90	≥ 90	≥ 95	–	–	–	–	–	–
CCn1nc(C)c(Cl)c1/C(OC(C)OC(=O)OC)=C(\C#N)c1ccc(C(C)(C)C)cc1 (centres unmarked) [Compound 771]	≥ 90	≥ 90	≥ 95	≥ 90	100	100	≥ 90	≥ 90	95
CCOC(=O)OC(C)O/C(=C(/C#N)c1ccc(C(C)(C)C)cc1)c1c(Cl)c(C)nn1CC (centres unmarked) [Compound 772]	≥ 90	≥ 90	≥ 95	≥ 90	100	100	≥ 90	≥ 90	90
CCCCCOC(=O)OC(C)O/C(=C(/C#N)c1ccc(C(C)(C)C)cc1)c1c(Cl)c(C)nn1CC (centres unmarked) [Compound 780]	≥ 90	≥ 90	≥ 95	≥ 90	–	–	≥ 90	≥ 90	–
CCn1nc(C)c(C)c1/C(OCOC(=O)OC)=C(\C#N)c1ccc(C(C)(C)C)cc1 [Compound 931]	≥ 90	≥ 90	≥ 95	≥ 90	98	95	≥ 90	≥ 90	95
CCOC(=O)OCO/C(=C(/C#N)c1ccc(C(C)(C)C)cc1)c1c(C)c(C)nn1CC [Compound 932]	≥ 90	≥ 90	≥ 95	≥ 90	97	90	≥ 90	≥ 90	–
CCCOC(=O)OCO/C(=C(/C#N)c1ccc(C(C)(C)C)cc1)c1c(C)c(C)nn1CC [Compound 933]	≥ 90	≥ 90	≥ 95	≥ 90	–	–	≥ 90	≥ 90	–
CCn1nc(C)c(C)c1/C(OCOC(=O)OCC(C)C)=C(\C#N)c1ccc(C(C)(C)C)cc1 [Compound 937]	≥ 90	≥ 90	≥ 95	≥ 90	100	100	≥ 90	≥ 90	90
CCCCCOC(=O)OCO/C(=C(/C#N)c1ccc(C(C)(C)C)cc1)c1c(C)c(C)nn1CC [Compound 940]	≥ 90	≥ 90	≥ 95	≥ 90	–	–	≥ 90	≥ 90	–
CCn1nc(C)c(C)c1/C(OC(C)OC(=O)OC)=C(\C#N)c1ccc(C(C)(C)C)cc1 (centres unmarked) [Compound 963]	≥ 90	≥ 90	≥ 95	≥ 90	–	–	≥ 90	≥ 90	–
CCn1nc(C)c(C)c1/C(OC(C)OC(=O)OCC(C)C)=C(\C#N)c1ccc(C(C)(C)C)cc1 (centres unmarked) [Compound 969]	≥ 90	≥ 90	≥ 95	≥ 90	–	–	≥ 90	≥ 90	–

From US11104648B2, “Pyrazole derivative” (Zhejiang Research Institute of Chemical Industry Co., Ltd., priority 2018, dated 2021)
